Test results as given in patent publication US8889595B2, “Herbicides” (Syngenta Participations AG, priority 2008, dated 2014).

Key:
Assay type in all cases: in vivo
[1] = tested on: Avena fatua (AVEFA); test: Post-emergence herbicidal activity, glasshouse; conditions: post-emergence spray after 8 days cultivation; rate 250 g/ha; evaluated after 13 days; 100=total damage to plant, 0=no damage to plant
Protocol: (§1) Seeds of a variety of test species are sown in standard soil in pots. After cultivation for one day (pre-emergence) or after 8 days cultivation (post-emergence) under controlled conditions in a glasshouse (at 24/16° C., day/night; 14 hours light; 65% humidity), the plants are sprayed with an aqueous spray solution derived from the formulation of the technical active ingredient in acetone/water (50:50) solution containing 0.5% Tween 20 (polyoxyethelyene sorbitan monolaurate, CAS RN 9005-64-5). The test plants are then grown in a glasshouse under controlled conditions in a glasshouse (at 24/16° C., day/night; 14 hours light; 65% humidity) and watered twice daily. After 13 days for pre and post-emergence, the test is evaluated (100=total damage to plant; 0=no damage to plant). Test plants: • Lolium perenne (LOLPE), Alopecurus myosuroides (ALOMY), Echinochloa crus-galli (ECHCG), Avena fatua (AVEFA)

[2] = tested on: Echinochloa crus-galli (ECHCG); test: Post-emergence herbicidal activity, glasshouse; conditions: post-emergence spray after 8 days cultivation; rate 250 g/ha; evaluated after 13 days; 100=total damage to plant, 0=no damage to plant
Protocol: as §1

[3] = tested on: Lolium perenne (LOLPE); test: Post-emergence herbicidal activity, glasshouse; conditions: post-emergence spray after 8 days cultivation; rate 250 g/ha; evaluated after 13 days; 100=total damage to plant, 0=no damage to plant
Protocol: as §1

[4] = tested on: Alopecurus myosuroides (ALOMY); test: Post-emergence herbicidal activity, glasshouse; conditions: post-emergence spray after 8 days cultivation; rate 250 g/ha; evaluated after 13 days; 100=total damage to plant, 0=no damage to plant
Protocol: as §1

[5] = tested on: Avena fatua (AVEFA); test: Pre-emergence herbicidal activity, glasshouse; conditions: pre-emergence spray after one day cultivation; rate 250 g/ha; evaluated after 13 days; 100=total damage to plant, 0=no damage to plant
Protocol: as §1

[6] = tested on: Echinochloa crus-galli (ECHCG); test: Pre-emergence herbicidal activity, glasshouse; conditions: pre-emergence spray after one day cultivation; rate 250 g/ha; evaluated after 13 days; 100=total damage to plant, 0=no damage to plant
Protocol: as §1

[7] = tested on: Lolium perenne (LOLPE); test: Pre-emergence herbicidal activity, glasshouse; conditions: pre-emergence spray after one day cultivation; rate 250 g/ha; evaluated after 13 days; 100=total damage to plant, 0=no damage to plant
Protocol: as §1

[8] = tested on: Alopecurus myosuroides (ALOMY); test: Pre-emergence herbicidal activity, glasshouse; conditions: pre-emergence spray after one day cultivation; rate 250 g/ha; evaluated after 13 days; 100=total damage to plant, 0=no damage to plant
Protocol: as §1

Compound: Cc1cc(C)c(C2C(=O)CC(Cc3ccc(C)o3)C2=O)c(C)c1 (centres unmarked) [Compound T4]
- Post-Emergence Activity AVEFA [1]: 20
- Post-Emergence Activity ECHCG [2]: 30
- Post-Emergence Activity LOLPE [3]: 50
- Post-Emergence Activity ALOMY [4]: 40

Compound: Cc1cc(C)c(C2C(=O)C/C(=C\c3ccco3)C2=O)c(C)c1 (centres unmarked) [Compound T8]
- Post-Emergence Activity AVEFA [1]: 0
- Post-Emergence Activity ECHCG [2]: 30
- Post-Emergence Activity LOLPE [3]: 30
- Post-Emergence Activity ALOMY [4]: 10

Compound: Cc1cc(C)c(C2C(=O)CC(Cc3ccoc3)C2=O)c(C)c1 (centres unmarked) [Compound T2, 4-Furan-3-ylmethyl-2-(2,4,6-trimethyl-phenyl)-cyclopentane-1,3-dione]
- Pre-Emergence Activity AVEFA [5]: 20
- Pre-Emergence Activity ECHCG [6]: 0
- Pre-Emergence Activity LOLPE [7]: 80
- Pre-Emergence Activity ALOMY [8]: 30
- Post-Emergence Activity AVEFA [1]: 20
- Post-Emergence Activity ECHCG [2]: 80
- Post-Emergence Activity LOLPE [3]: 80
- Post-Emergence Activity ALOMY [4]: 60

Compound: Cc1cc(C)c(C2=C(OC(=O)C(C)(C)C)C/C(=C\c3ccoc3)C2=O)c(C)c1 [Compound P2, 2,2-Dimethyl-propionic acid 4-[1-furan-3-yl-meth-(E)-ylidene]-3-oxo-2-(2,4,6-trimethyl-phenyl)-cyclopent-1-enyl ester]
- Pre-Emergence Activity AVEFA [5]: 0
- Pre-Emergence Activity ECHCG [6]: 0
- Pre-Emergence Activity LOLPE [7]: 90
- Pre-Emergence Activity ALOMY [8]: 0

Compound: COC1=C(c2c(C)cc(C)cc2C)C(=O)C(C(O)c2cc(C)c(C)o2)C1 (centres unmarked) [Compound P1]
- Pre-Emergence Activity AVEFA [5]: 0
- Pre-Emergence Activity ECHCG [6]: 0
- Pre-Emergence Activity LOLPE [7]: 40
- Pre-Emergence Activity ALOMY [8]: 0

Compound: Cc1cc(C)c(C2C(=O)CC(Cc3cc(C)on3)C2=O)c(C)c1 (centres unmarked) [Compound T3, 4-(5-methyl-isoxazol-3-ylmethyl)-2-(2,4,6-trimethyl-phenyl)-cyclopentane-1,3-dione]
- Pre-Emergence Activity AVEFA [5]: 70
- Pre-Emergence Activity ECHCG [6]: 80
- Pre-Emergence Activity LOLPE [7]: 100
- Pre-Emergence Activity ALOMY [8]: 100
- Post-Emergence Activity AVEFA [1]: 80
- Post-Emergence Activity ECHCG [2]: 80
- Post-Emergence Activity LOLPE [3]: 90
- Post-Emergence Activity ALOMY [4]: 90
